Measured values as given in patent publication US20060051358A1, “Immune response assessment method” (Baylor Research Institute, priority 2004, published 2006).

Columns and labels:
Assay type in all cases: cell-based, human
[1] = tested on: T cells in melanoma patient PBMCs; experiment: Intracellular cytokine detection assay (flow cytometry); settings: 8 hours with anti CD28/CD49d mAbs and monensin
Protocol: FIG. 12A is a graph that depicts the immune response of a melanoma patient as evaluated according the present invention. PBMCs obtained before DC vaccination and post 8 DC vaccinations from a melanoma patient (same as FIG. 10) were stimulated with single 15-mer MART-1 peptides or diluent. The levels of IL-1a and IP-10 in the culture supernatants at 48 h of culture are shown. […] To examine this hypothesis, we used a different well-established methodology, intracellular cytokine detection assay. The same PBMCs were stimulated for 8 h with MART-1 15-mer single peptides in the presence of anti-CD28/CD49d mAb and monensin. After permeabilization of the cell membrane, the cells were stained with anti-IFN-γ mAb and the IFN-γ+ populations were analyzed with a flowcytometer (FIG. 12B).
The same patient's PBMCs were stimulated for 8 hours with MART-1 15-mer peptide#10 in the presence of antiCD28/CD49d mAb and monensin. The production of IL-2 were analyzed by staining with specific mAbs.
The same patient's PBMCs were stimulated for 8 hours with MART-1 15-mer peptide#11 in the presence of antiCD28/CD49d mAb and monensin. The production of IL-5 were analyzed by staining with specific mAbs.
(§1) FIGS. 29A-D are graphs that depict the immune response of a melanoma patients as evaluated according the present invention. PBMCs obtained from a melanoma patient were stimulated with clusters of peptides or individual peptides encoding NY-ESO1. IL-10 levels in culture supernatant at 48 hours of culture are shown (FIG. 29A). […] To explore the origin of IL-10 production, the PBMCs were stimulated with peptide#39 in the presence of anti CD28/CD49d mAbs and monensin for 8 hours, and stained with IL-10 specific mAb. […] Next, to evaluate whether this IL-10 producing T cells had regulatory properties, PBMCs stimulated with peptide #39 or irrelevant 15-mer peptide were added in transwells to a “third party” MLR to test suppression of T cell expansion by the release of soluble mediators. The MLR used CFSE-labeled CD4^+T cells and allogeneic mature DCs, both from healthy volunteers, in order to avoid the effect of peptide-specific T cell response.

[2] = tested on: CFSE-labeled CD4+ T cells and allogeneic mature DCs; experiment: Third party MLR suppression assay in transwells; settings: patient's PBMC stimulated with peptide added in transwells
Protocol: as §1

[3] = tested on: PBMCs obtained from melanoma patients; experiment: EPIMAX: PBMC culture with peptides or peptide clusters, multiplex bead cytokine assay (Luminex)
[4] = tested on: CD4+ / CD8+ T cells in melanoma patient PBMCs; experiment: CFSE dilution T cell proliferation assay, melanoma patient PBMCs; settings: epitopes for Th0, Th1, Th2 cells; patient 094-012, Post
[5] = tested on: CD4+ / CD8+ T cells in melanoma patient PBMCs; experiment: as above; settings: epitopes for Th0, Th1, Th2 cells
From the text: FIG. 13 depicts the immune response of a melanoma patient as evaluated according the present invention. CFSE (5,6-carboxyfluorescein diacetate succinimidyl ester) is a tracer dye that permits to identify the number of cell division with a flowcytometer. As EPIMAX is a non-destructive assay, we combined with EPIMAX and CFSE technology to determine the proliferative capacity of antigen-specific T cells. […] PBMCs obtained from the same melanoma patient (same as FIG. 10) were first stained with 1 uM of CFSE, and stimulated with either clusters of overlapping peptides or individual peptides encoding MART-1. On day 8 of culture, the cells were stained with CD8-PE, CD3-PerCP, and CD4-APC, and analyzed T cell proliferation in response to peptide stimulation.
(§2) FIG. 14 depicts the immune response of a melanoma patient as evaluated according the present invention. PBMCs obtained from the same melanoma patient (same as FIG. 10) were first stained with 1 μM of CFSE, and stimulated with individual peptides encoding MART-1 in triplicates. On day 8 of culture, the cells were stained with CD8-PE, CD3-PerCP, and CD4-APC, and analyzed T cell proliferation in response to peptide stimulation.
as §2, with “FIGS. 21A-B” for “FIG. 14”, “19)” for “10)”, “stimulation. […] FIG. 21B depicts the CFSE-diluted CD4+ T cell populations in response to each MART-1 15-mer peptide within the CD4^+ T cell population.” for “stimulation.”
FIGS. 22 A-C depicts the immune response of a melanoma patient as evaluated according the present invention. PBMCs obtained from a HLA-A2^neg melanoma patient who received DC vaccinations were first stained with 1 μM of CFSE, and stimulated with clusters of peptides encoding NY-ESO1. On day 8 of culture, the cells were stained with CD8-PE, CD3-PerCP, and CD4-APC, and analyzed T cell proliferation in response to peptide stimulation was analyzed based on CFSE dilution with a flowcytometer. […] FIG. 22B depicts the IL-2 levels in the culture supernatant at 48 hours of culture. […] To identify the epitope for CD4+ T cells, CFSE-stained PBMCs were stimulated with individual peptides within NY-ESO1 cluster#8. The proliferating CD4+ T cells were analyzed based on CFSE dilution with a flowcytometer on day 8.

[6] = epitopes for Th0, Th1, Th2 cells, patient 094-012, Post

Row | Substance | CD4+ T cells producing IL-10 [1] | proliferation in third party MLR [2] | Type of response ([3]; epitopes for CD8+ T cells, patient 094-007, Post) | Type of response ([3]; epitopes for CD8+ T cells, patient 094-007, Pre) | proliferation [4] | Type of response [3, 6] | proliferation ([5]; patient 094-009, Post) | proliferation ([5]; patient 094-015, Post) | Type of response ([3]; epitopes for Th0, Th1, Th2 cells, patient 094-009, Post) | Type of response ([3]; epitopes for Th0, Th1, Th2 cells, patient 094-015, Post) | CD4+ T cell epitope identification (cytokines at 48 h, CFSE dilution day 8) ([3]; two melanoma patients, peptides of TRP-1 cluster#25 or gp100 cluster#15)
1 | NY-ESO1 p39: 15-mer of NY-ESO1 library, residues 153-167 (LQQLSLLMWITQCFL; UniProt P78358 153-167, looked up, fragment) | about 0.11% | significantly suppressed proliferation in the MLR | 1 | 1 | – | – | – | – | – | – | –
2 | gp100 p78: 15-mer of gp100 library, residues 309-323 (TTDGHRPTAEAPNTT; UniProt P40967 309-323, looked up, fragment) | – | – | – | – | Yes | 2 | – | – | – | – | –
3 | gp100 p152: 15-mer of gp100 library, residues 605-619 (VLMAVVLASLIYRRR; UniProt P40967 605-619, looked up, fragment) | – | – | – | – | Yes | 2 | Yes | Yes | 0 | 0 | are epitopes for CD4^+ T cells
